Measured values published in paper PMC4522657, “Identification of a DYRK1A Inhibitor that Induces Degradation of the Target Kinase using Co-chaperone CDC37 fused with Luciferase nanoKAZ” (Scientific Reports, 2015).

Experiments:
MAP3K4_Cascade = target: T1, MAP3K4_Cascade (Homo sapiens, UniProt Q9Y6R4); experiment: Kinase panel, CaNDY 1 µM; format: biochemical; conditions: CaNDY 1 µM relative to DMSO
T1 construct: purchased Carna Biosciences

NEK1 = target: T2, NEK1 (Homo sapiens, UniProt Q96PY6); experiment: Kinase panel, CaNDY 1 µM; format: biochemical; conditions: CaNDY 1 µM relative to DMSO
T2 construct: purchased Carna Biosciences
Procedure, shortened: (§1)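 Reaction: 1 h, room temperature, 1% DMSO final. Detection: off-chip mobility shift, product and substrate resolved electrophoretically. Output: % inhibition from P/(P+S) versus control without compound. Enzyme: baculovirus-made full-length human GST-fusion kinase.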

CK1γ3 = target: T3, CK1γ3 (Homo sapiens, UniProt Q9Y6M4); experiment: Kinase panel, CaNDY 1 µM; format: biochemical; conditions: CaNDY 1 µM relative to DMSO
T3 construct: purchased Carna Biosciences
Procedure, shortened: as §1

AurA/TPX2 = target: T4, AurA/TPX2 (Homo sapiens, UniProt O14965); experiment: Kinase panel, CaNDY 1 µM; format: biochemical; conditions: CaNDY 1 µM relative to DMSO
T4 construct: purchased Carna Biosciences
Procedure, shortened: as §1

ROCK2 = target: T5, ROCK2 (Homo sapiens, UniProt O75116); experiment: Kinase panel, CaNDY 1 µM; format: biochemical; conditions: CaNDY 1 µM relative to DMSO
T5 construct: purchased Carna Biosciences
Procedure, shortened: as §1

PKACβ = target: T6, PKACβ (Homo sapiens, UniProt P22694); experiment: Kinase panel, CaNDY 1 µM; format: biochemical; conditions: CaNDY 1 µM relative to DMSO
T6 construct: purchased Carna Biosciences
Procedure, shortened: as §1

ABL(E255K) = target: T7, ABL(E255K) (Homo sapiens, UniProt P00519, E255K); experiment: Kinase panel, CaNDY 1 µM; format: biochemical; conditions: CaNDY 1 µM relative to DMSO
T7 construct: purchased Carna Biosciences
Procedure, shortened: as §1

CDK7/CycH/MAT1 = target: T8, CDK7/CycH/MAT1 (Homo sapiens, UniProt P50613); experiment: Kinase panel, CaNDY 1 µM; format: biochemical; conditions: CaNDY 1 µM relative to DMSO
T8 construct: purchased Carna Biosciences
Procedure, shortened: as §1

DAPK1 = target: T9, DAPK1 (Homo sapiens, UniProt P53355); experiment: Kinase panel, CaNDY 1 µM; format: biochemical; conditions: CaNDY 1 µM relative to DMSO
T9 construct: purchased Carna Biosciences
T9 sequence (P53355 whole entry): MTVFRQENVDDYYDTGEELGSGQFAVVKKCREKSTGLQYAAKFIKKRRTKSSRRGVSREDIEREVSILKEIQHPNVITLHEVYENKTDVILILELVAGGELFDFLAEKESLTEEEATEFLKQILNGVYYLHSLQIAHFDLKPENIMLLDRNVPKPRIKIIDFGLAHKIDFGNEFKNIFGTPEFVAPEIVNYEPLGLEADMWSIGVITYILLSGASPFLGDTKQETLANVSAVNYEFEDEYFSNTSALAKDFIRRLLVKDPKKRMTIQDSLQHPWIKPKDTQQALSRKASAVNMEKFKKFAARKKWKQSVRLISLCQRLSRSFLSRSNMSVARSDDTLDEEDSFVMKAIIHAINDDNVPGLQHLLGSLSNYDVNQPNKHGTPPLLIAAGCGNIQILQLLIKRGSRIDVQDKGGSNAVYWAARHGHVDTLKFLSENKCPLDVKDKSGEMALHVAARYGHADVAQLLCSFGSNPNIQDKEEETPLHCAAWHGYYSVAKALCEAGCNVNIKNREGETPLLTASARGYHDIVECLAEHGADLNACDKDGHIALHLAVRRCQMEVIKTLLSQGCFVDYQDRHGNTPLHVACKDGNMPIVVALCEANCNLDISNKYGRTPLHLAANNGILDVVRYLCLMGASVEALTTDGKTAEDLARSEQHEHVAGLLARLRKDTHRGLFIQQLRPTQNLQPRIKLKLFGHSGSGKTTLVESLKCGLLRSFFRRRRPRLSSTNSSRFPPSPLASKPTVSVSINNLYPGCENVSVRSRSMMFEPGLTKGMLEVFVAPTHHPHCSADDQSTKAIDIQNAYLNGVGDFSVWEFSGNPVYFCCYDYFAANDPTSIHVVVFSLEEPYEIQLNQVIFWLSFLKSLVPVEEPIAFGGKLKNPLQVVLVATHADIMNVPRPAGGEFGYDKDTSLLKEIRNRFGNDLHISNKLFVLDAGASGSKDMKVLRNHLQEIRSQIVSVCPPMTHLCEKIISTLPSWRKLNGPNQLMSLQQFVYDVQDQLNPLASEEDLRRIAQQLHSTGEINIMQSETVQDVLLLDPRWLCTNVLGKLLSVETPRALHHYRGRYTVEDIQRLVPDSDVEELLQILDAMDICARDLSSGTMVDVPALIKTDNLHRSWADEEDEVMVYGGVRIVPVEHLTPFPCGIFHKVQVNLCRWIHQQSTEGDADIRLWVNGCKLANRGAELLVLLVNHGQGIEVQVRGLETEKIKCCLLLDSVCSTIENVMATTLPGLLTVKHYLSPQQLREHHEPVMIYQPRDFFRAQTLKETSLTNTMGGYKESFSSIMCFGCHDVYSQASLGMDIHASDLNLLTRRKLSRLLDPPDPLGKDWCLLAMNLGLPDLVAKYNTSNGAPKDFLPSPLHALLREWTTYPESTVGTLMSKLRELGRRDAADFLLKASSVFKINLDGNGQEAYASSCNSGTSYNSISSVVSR
Procedure, shortened: as §1

NEK6 = target: T10, NEK6 (Homo sapiens, UniProt Q9HC98); experiment: Kinase panel, CaNDY 1 µM; format: biochemical; conditions: CaNDY 1 µM relative to DMSO
T10 construct: purchased Carna Biosciences
Procedure, shortened: as §1

CGK2 = target: T11, CGK2 (Homo sapiens, UniProt Q13237); experiment: Kinase panel, CaNDY 1 µM; format: biochemical; conditions: CaNDY 1 µM relative to DMSO
T11 construct: purchased Carna Biosciences
Procedure, shortened: as §1

SGK3 = target: T12, SGK3 (Homo sapiens, UniProt Q96BR1); experiment: Kinase panel, CaNDY 1 µM; format: biochemical; conditions: CaNDY 1 µM relative to DMSO
T12 construct: purchased Carna Biosciences
Procedure, shortened: as §1

EPHA5 = target: T13, EPHA5 (Homo sapiens, UniProt P54756); experiment: Kinase panel, CaNDY 1 µM; format: biochemical; conditions: CaNDY 1 µM relative to DMSO
T13 construct: purchased Carna Biosciences
Procedure, shortened: as §1

CDC7/ASK = target: T14, CDC7/ASK (Homo sapiens, UniProt O00311); experiment: Kinase panel, CaNDY 1 µM; format: biochemical; conditions: CaNDY 1 µM relative to DMSO
T14 construct: purchased Carna Biosciences
Procedure, shortened: as §1

SRPK2 = target: T15, SRPK2 (Homo sapiens, UniProt P78362); experiment: Kinase panel, CaNDY 1 µM; format: biochemical; conditions: CaNDY 1 µM relative to DMSO
T15 construct: purchased Carna Biosciences
Procedure, shortened: as §1

PKCε = target: T16, PKCε (Homo sapiens, UniProt Q02156); experiment: Kinase panel, CaNDY 1 µM; format: biochemical; conditions: CaNDY 1 µM relative to DMSO
T16 construct: purchased Carna Biosciences
T16 sequence (Q02156 whole entry): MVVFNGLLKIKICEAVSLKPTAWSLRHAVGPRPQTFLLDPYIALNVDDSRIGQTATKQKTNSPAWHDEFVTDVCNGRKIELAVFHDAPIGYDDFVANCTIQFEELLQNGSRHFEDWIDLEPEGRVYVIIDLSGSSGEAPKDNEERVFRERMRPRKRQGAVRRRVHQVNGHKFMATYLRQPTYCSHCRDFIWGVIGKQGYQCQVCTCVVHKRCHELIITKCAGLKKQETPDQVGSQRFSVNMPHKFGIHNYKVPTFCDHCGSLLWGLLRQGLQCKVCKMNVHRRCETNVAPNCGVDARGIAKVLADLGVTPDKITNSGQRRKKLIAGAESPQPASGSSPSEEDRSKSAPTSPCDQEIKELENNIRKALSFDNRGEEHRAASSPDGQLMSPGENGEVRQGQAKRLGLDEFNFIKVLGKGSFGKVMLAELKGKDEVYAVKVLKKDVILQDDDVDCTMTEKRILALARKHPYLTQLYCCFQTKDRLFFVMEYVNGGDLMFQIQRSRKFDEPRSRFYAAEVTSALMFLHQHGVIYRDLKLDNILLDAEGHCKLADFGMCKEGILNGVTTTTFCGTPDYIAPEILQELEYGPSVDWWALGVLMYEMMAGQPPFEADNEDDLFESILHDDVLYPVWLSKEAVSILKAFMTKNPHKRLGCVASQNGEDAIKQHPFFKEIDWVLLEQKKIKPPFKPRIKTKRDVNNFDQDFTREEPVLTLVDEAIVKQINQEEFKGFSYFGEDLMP
Procedure, shortened: as §1

KIT = target: T17, KIT (Homo sapiens, UniProt P10721); experiment: Kinase panel, CaNDY 1 µM; format: biochemical; conditions: CaNDY 1 µM relative to DMSO
T17 construct: purchased Carna Biosciences
Procedure, shortened: as §1

ALK(L1196M) = target: T18, ALK(L1196M) (Homo sapiens, UniProt Q9UM73, L1196M); experiment: Kinase panel, CaNDY 1 µM; format: biochemical; conditions: CaNDY 1 µM relative to DMSO
T18 construct: purchased Carna Biosciences
Procedure, shortened: as §1

CDK2/CycE1 = target: T19, CDK2/CycE1 (Homo sapiens, UniProt P24941); experiment: Kinase panel, CaNDY 1 µM; format: biochemical; conditions: CaNDY 1 µM relative to DMSO
T19 construct: purchased Carna Biosciences
Procedure, shortened: as §1

MAP2K4_Cascade = target: T20, MAP2K4_Cascade (Homo sapiens, UniProt P45985); experiment: Kinase panel, CaNDY 1 µM; format: biochemical; conditions: CaNDY 1 µM relative to DMSO
T20 construct: purchased Carna Biosciences
T20 sequence (P45985 whole entry): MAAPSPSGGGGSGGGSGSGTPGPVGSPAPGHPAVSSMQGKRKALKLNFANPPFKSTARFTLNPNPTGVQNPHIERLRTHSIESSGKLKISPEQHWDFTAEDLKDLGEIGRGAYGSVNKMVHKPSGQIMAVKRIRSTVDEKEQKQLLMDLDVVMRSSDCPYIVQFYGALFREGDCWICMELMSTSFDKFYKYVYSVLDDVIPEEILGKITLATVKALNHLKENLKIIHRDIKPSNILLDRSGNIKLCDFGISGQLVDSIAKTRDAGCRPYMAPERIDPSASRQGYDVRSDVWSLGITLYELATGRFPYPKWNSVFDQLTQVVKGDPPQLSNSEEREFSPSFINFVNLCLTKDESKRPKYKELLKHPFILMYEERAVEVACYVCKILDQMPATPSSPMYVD
Procedure, shortened: as §1

EPHA2 = target: T21, EPHA2 (Homo sapiens, UniProt P29317); experiment: Kinase panel, CaNDY 1 µM; format: biochemical; conditions: CaNDY 1 µM relative to DMSO
T21 construct: purchased Carna Biosciences
Procedure, shortened: as §1

SRPK1 = target: T22, SRPK1 (Homo sapiens, UniProt Q96SB4); experiment: Kinase panel, CaNDY 1 µM; format: biochemical; conditions: CaNDY 1 µM relative to DMSO
T22 construct: purchased Carna Biosciences
Procedure, shortened: as §1

CDK9/CycT1 = target: T23, CDK9/CycT1 (Homo sapiens, UniProt P50750); experiment: Kinase panel, CaNDY 1 µM; format: biochemical; conditions: CaNDY 1 µM relative to DMSO
T23 construct: purchased Carna Biosciences
Procedure, shortened: as §1

HIPK2 = target: T24, HIPK2 (Homo sapiens, UniProt Q9H2X6); experiment: Kinase panel, CaNDY 1 µM; format: biochemical; conditions: CaNDY 1 µM relative to DMSO
T24 construct: purchased Carna Biosciences
T24 sequence (Q9H2X6 whole entry): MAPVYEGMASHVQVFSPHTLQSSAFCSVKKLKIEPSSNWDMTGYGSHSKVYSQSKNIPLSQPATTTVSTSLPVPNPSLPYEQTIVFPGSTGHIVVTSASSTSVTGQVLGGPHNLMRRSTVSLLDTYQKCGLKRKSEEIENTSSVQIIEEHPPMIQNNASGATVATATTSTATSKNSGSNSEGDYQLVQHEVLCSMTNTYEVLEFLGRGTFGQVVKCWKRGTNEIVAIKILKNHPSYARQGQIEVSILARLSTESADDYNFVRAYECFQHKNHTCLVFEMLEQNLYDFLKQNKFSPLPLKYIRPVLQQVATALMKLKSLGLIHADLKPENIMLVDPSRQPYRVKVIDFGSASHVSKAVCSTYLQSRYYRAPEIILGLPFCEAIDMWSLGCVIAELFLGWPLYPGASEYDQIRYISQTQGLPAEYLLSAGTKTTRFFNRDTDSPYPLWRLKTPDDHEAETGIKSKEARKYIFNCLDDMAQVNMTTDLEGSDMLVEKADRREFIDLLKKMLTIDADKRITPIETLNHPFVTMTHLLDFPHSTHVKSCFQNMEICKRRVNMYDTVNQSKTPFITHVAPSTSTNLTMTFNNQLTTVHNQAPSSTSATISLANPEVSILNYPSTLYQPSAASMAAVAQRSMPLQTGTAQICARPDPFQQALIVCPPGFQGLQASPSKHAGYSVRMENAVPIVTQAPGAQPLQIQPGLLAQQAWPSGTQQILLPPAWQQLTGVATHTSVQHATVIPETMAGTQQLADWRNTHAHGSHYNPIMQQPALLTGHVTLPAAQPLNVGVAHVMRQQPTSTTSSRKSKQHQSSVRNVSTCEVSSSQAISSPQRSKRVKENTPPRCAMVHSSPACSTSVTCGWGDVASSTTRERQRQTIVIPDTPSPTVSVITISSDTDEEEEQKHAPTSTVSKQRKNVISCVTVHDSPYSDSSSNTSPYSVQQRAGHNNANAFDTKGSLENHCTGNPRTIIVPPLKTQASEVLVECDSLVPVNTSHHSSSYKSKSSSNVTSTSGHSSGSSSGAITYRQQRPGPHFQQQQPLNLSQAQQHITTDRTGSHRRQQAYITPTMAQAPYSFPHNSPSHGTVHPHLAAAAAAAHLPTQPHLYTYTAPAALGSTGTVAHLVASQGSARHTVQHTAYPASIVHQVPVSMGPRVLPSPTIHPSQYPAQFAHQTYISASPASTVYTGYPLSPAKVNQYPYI
Procedure, shortened: as §1

RET = target: T25, RET (Homo sapiens, UniProt P07949); experiment: Kinase panel, CaNDY 1 µM; format: biochemical; conditions: CaNDY 1 µM relative to DMSO
T25 construct: purchased Carna Biosciences
T25 sequence (P07949 29-1114): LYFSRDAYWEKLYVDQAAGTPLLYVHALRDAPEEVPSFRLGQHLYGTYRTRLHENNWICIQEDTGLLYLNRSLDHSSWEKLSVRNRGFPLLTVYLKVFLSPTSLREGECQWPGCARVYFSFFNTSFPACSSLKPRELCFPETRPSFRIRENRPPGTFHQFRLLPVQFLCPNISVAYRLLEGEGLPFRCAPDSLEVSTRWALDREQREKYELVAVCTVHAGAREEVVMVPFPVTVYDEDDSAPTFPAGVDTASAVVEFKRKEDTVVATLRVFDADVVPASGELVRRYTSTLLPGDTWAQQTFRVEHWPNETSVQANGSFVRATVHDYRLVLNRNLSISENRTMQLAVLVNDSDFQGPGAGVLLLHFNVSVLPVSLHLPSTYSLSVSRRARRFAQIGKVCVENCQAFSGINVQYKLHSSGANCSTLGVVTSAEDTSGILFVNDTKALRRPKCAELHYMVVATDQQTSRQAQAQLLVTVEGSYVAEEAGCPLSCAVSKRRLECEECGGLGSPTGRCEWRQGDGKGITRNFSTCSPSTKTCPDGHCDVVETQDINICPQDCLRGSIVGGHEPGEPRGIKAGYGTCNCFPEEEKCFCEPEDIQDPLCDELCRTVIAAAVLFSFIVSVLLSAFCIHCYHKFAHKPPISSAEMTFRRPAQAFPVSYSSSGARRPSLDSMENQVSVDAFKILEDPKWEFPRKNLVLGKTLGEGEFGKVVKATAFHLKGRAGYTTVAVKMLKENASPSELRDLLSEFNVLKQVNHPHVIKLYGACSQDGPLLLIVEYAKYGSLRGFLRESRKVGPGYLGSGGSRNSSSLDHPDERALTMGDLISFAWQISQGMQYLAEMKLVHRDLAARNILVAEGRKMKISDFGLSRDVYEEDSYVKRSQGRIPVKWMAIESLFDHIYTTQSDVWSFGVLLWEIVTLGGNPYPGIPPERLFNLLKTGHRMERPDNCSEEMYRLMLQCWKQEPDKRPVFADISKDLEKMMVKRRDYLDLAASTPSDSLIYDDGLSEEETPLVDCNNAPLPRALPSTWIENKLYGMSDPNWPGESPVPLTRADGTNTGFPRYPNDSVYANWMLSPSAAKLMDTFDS

DYRK1B = DYRK1B (Homo sapiens, UniProt Q9Y463); experiment: Western blot of target kinase expression in HEK293 cells; format: cell-based; design: endogenous in cells; host or cells: HEK293; conditions: CaNDY 2 μM, 4 days
Procedure: To check selectivity of CaNDY for other kinases, we first examined protein expression of several kinases in HEK293 cells treated with CaNDY (2 μM) for 4 days. […] Third, protein expression of these kinases targeted by CaNDY (DYRK1A, DYRK1B, CLK1, and Haspin) was reassessed by Western blot analysis as performed in Fig. 7b.
Western blot analysis was performed using the antibodies described above. In brief, total cell lysates were separated by SDS-PAGE (5–20% gels; ATTO, Tokyo, Japan) under reducing conditions and then transferred to a PVDF membrane (PALL, SP, Brazil). Antibody reactions were performed with Can Get Signal® Immunoreaction Enhancer Solution (Toyobo). Peroxidase activities on the membrane were visualized with ECL Western Blotting Detection Reagents (GE Healthcare) or ImmunoStar® LD (Wako Pure Chemical Industries, Osaka, Japan), and a ChemiDoc^TM MP Imaging System (Bio-Rad, Hercules, CA, USA).

For `[H]/N=C1/NC(=O)C(=Cc2ccc3c(c2)CCO3)S1` [CaNDY, (Z)-5-[(2,3-dihydrobenzofuran-5-yl)methylene]-2-iminothiazolidin-4-one], the remaining activity at 1 µM (MAP3K4_Cascade) was 101%, the remaining activity at 1 µM (NEK1) was 95.6% and the “%Activity” value (CK1γ3) was 79.0%. For the same compound, the remaining activity at 1 µM (AurA/TPX2) was 98.8%, the remaining activity at 1 µM (ROCK2) was 103% and the remaining activity at 1 µM (PKACβ) was 92.5%. For the same compound, the remaining activity at 1 µM (ABL(E255K)) was 104%, the remaining activity at 1 µM (CDK7/CycH/MAT1) was 93.6% and the remaining activity at 1 µM (DAPK1) was 80.6%. For the same compound, the remaining activity at 1 µM (NEK6) was 96.1%, the remaining activity at 1 µM (CGK2) was 71.1% and the remaining activity at 1 µM (SGK3) was 93.3%. The “%Activity” value (EPHA5) was 100.1%, the remaining activity at 1 µM (CDC7/ASK) was 68% and the remaining activity at 1 µM (SRPK2) was 96.6%. For the same compound, the remaining activity at 1 µM (PKCε) was 91.9%, the remaining activity at 1 µM (KIT) was 99.3% and the remaining activity at 1 µM (ALK(L1196M)) was 97.8%. For the same compound, the “%Activity” value (CDK2/CycE1) was 87.5%, the remaining activity at 1 µM (MAP2K4_Cascade) was 100% and the remaining activity at 1 µM (EPHA2) was 100%. For the same compound, the remaining activity at 1 µM (SRPK1) was 101%, the remaining activity at 1 µM (CDK9/CycT1) was 19.4% and the remaining activity at 1 µM (HIPK2) was 22.6%. For the same compound, the remaining activity at 1 µM (RET) was 102% and the “protein expression of DYRK1B” value (DYRK1B) was “decreased expression”.
